# Results published in patent US20030236229A1 (priority 1996, published 2003).
# Counter-ions that a name gives are not always drawn.
# Target: T1, lysosomal mannosidase (Homo sapiens, UniProt O00754)
# T1 sequence (O00754 50-1011): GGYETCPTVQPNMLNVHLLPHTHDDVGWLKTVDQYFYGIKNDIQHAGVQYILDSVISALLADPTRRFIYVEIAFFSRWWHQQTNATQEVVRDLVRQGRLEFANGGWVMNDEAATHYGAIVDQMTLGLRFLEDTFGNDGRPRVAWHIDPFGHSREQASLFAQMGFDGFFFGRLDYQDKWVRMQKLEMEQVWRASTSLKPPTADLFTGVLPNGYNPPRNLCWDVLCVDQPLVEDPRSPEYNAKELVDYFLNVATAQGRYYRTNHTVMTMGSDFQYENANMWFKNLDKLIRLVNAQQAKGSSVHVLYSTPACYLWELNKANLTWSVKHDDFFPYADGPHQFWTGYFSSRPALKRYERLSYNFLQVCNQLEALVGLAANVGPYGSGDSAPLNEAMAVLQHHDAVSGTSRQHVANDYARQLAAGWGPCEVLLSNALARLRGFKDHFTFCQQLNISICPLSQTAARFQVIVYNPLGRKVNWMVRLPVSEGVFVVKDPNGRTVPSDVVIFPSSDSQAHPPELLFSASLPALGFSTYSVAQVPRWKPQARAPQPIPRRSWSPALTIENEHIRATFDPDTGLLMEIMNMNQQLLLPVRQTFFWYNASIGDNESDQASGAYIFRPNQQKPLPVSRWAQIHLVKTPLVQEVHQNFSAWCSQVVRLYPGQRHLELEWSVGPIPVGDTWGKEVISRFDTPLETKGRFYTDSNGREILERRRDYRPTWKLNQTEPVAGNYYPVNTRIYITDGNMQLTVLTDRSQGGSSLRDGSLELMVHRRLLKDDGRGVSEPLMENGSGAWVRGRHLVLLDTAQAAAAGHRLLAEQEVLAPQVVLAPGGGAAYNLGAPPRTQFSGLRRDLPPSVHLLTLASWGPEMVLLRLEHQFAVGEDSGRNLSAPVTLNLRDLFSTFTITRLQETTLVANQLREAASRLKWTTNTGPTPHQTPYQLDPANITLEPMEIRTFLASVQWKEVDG
# Assay: biochemical
# Conditions: Lysosomal Mannosidase Activity (μM)
# Protocol: (§1) 15 μl of α-mannosidase (Sigma 38 U/ml) was added to each well and the plates were incubated for 60 min at 37° C. The reaction was stopped by the addition of 50 μl of 0.5M sodium carbonate and formation of p-nitrophenol was measured with a plate set at […]. […] The reaction was stopped by the addition of 50 μl of 0.5M sodium carbonate and formation of p nitrophenol was measured with a plate set at 405.
row,Structure (SMILES),IC50 [µM]
1,"O[C@H]1[C@H]2[C@H](O)CCCN2C[C@H]1O [Swainsonine, reference compound]",0.08 ± 0.079

# Same assay, conditions: sodium acetate pH 5.0, 60 min at 37° C., p-nitrophenol read at 405
row,Structure (SMILES),Lysosomal Mannosidase Activity (μM)
1,"OC1=C(O)N2CCC[C@@H](O)[C@H]2[C@@H]1O [(1S,8R,8aS)-1,5,6,7,8,8a-Hexahydro-1,2,3,8-indolizinetetraol]",No detectable inhibition

# Same assay, conditions: sodium acetate pH 5.0, 60 min at 37° C., p-nitrophenol read at 405; read-out: Lysosomal Mannosidase Activity
row,Structure (SMILES),IC50 [µM]
1,"CC1CCC(O)C2C(O)C(O)CN12 (single isomer, unassigned) [GD37]",28.2 ± 7.85
2,"OC1CN2C(COCc3ccccc3)CCC(O)C2C1O (single isomer, unassigned) [GD42]",0.164 ± 0.0491
3,"CC1CCC(O)C2C(O)C(O)CN12 (single isomer, unassigned) [GD 20]",2.3 ± 1.13
4,"CC1CCC(O)C2C(O)C(O)CN12 (single isomer, unassigned) [GD 28]",0.316 ± 0.0759
5,"OC1CN2C(COCc3ccccc3)CCC(O)C2C1O (single isomer, unassigned) [GD 91]",3.23 ± 0.268
6,"N#CC1C(O)[C@@H](O)C2[C@H](O)CCCN12 (stereo in doubt) [GD 92, (1S, 2S, 3R/S, 8R, 8aS)-3-cyano-1,2,8-Trihydroxyoctahydroindolizine]",30.1 ± 1.2
7,"OCC1C(O)C(O)C2C(O)CCCN12 (stereo not shown) [EJH-4-263, 3-hydroxymethyl-swainsonine]",39.1 ± 16.3
8,"OCC1C(O)C(O)C2C(O)CCCN12 (stereo not shown) [EJH-4-264, 3-hydroxymethyl-swainsonine]",1.7 ± 0.5
9,"CC1CCC(O)C2C(O)C(O)CN12 [GD19, (5R)-5-Methylswainsonine formate salt]",1.45 ± 0.071
10,"C[C@H]1[C@@H](CO)C[C@@H](O)[C@@H]2[C@H](O)[C@H](O)CN21 [GD40, (5S,6S)-6-Hydroxymethyl-5-methylswainsonine]",62.4 ± 17.9
11,"C[C@@H]1[C@H](CO)C[C@@H](O)[C@@H]2[C@H](O)[C@H](O)CN21 [GD44, (5R,6R)-6-Hydroxymethyl-5-methylswainsonine]",24.5 ± 7.62
12,"OC[C@H]1CC[C@@H](O)[C@@H]2[C@H](O)[C@H](O)CN12 [GD45, (5R)-5-(Hydroxymethyl)swainsonine]",0.705 ± 0.309
13,"CCOC(=O)C1CC(O)C2C(O)C(O)CN2C1C [GD84, ethyl (5R,6R)-5-methylswainsonine-6-carboxylate]",1500 ± 707
14,"O=C1[C@H](O)[C@@H](O)[C@@H]2[C@H](O)CCCN12 [GD 35, (1S,2R,8R,8aS)-1,2,8-Trihydroxyhexahydo-3(2II)-indolizinone]",1090
15,"CCOC(=O)[C@H]1C[C@H](O)[C@@H]2[C@@H](O)[C@H](O)CN2[C@H]1C [GD 36, ethyl (1R,2R,5S,6S,8S,8aR)-1,2,8-trihydroxy-5-methyloctahydro-6-indolizinecarboxylate]",120 ± 32.2
16,"CC[C@H]1CC[C@@H](O)[C@@H]2[C@H](O)[C@H](O)CN12 [GD 38, (5S)-5-Ethylswainsonine]",0.36 ± 0.313
17,"OC[C@@H]1CC[C@@H](O)[C@@H]2[C@H](O)[C@H](O)CN12 [GD 46, (5S)-5-(Hydroxymethyl)swainsonine]",1.48 ± 0.455

# Target: T2, Golgi α-mannosidase II (Canavalia ensiformis, UniProt C0HJB3)
# T2 sequence (C0HJB3 1-981): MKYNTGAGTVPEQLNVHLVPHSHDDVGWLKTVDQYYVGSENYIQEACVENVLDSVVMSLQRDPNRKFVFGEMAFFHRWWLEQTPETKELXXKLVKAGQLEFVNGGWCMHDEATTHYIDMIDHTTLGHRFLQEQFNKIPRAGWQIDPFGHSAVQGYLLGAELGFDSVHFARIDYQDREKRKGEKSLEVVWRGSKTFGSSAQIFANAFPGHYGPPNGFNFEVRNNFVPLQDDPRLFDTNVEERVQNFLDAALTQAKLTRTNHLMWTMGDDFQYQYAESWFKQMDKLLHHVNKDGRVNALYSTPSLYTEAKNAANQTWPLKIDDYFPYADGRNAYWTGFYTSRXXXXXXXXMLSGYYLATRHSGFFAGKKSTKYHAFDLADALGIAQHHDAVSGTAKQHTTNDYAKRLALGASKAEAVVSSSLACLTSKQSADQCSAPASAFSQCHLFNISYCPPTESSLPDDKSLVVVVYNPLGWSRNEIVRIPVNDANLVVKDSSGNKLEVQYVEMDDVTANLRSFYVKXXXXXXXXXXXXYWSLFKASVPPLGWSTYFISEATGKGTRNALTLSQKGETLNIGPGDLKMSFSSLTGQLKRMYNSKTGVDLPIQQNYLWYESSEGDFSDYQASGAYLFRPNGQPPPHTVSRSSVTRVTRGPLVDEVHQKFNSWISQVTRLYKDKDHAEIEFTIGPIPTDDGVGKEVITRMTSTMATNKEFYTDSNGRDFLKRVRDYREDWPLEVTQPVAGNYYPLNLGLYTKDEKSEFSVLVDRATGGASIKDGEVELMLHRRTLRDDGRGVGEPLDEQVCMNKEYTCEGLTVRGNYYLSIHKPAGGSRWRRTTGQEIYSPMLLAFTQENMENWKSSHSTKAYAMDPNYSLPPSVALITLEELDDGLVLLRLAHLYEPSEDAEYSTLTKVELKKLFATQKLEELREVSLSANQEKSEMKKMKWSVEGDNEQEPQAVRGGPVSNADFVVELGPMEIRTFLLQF
# Assay: not given
# Format: biochemical
# Conditions: sodium acetate pH 5.6, 60 min at 37° C., p-nitrophenol read at 405
# Protocol: as §1
row,Structure (SMILES),MannoaidaseII Activity (μM)
1,"OC1=C(O)N2CCC[C@@H](O)[C@H]2[C@@H]1O [(1S,8R,8aS)-1,5,6,7,8,8a-Hexahydro-1,2,3,8-indolizinetetraol]",No detectable

# Same assay, conditions: sodium acetate pH 5.6, 60 min at 37° C., p-nitrophenol read at 405; read-out: MannoaidaseII Activity
row,Structure (SMILES),IC50 [µM]
1,"OCC1C(O)C(O)C2C(O)CCCN12 (stereo not shown) [EJH-4-263, 3-hydroxymethyl-swainsonine]",1.83 ± 1.3
2,"O=C1[C@H](O)[C@@H](O)[C@@H]2[C@H](O)CCCN12 [GD 35, (1S,2R,8R,8aS)-1,2,8-Trihydroxyhexahydo-3(2II)-indolizinone]",1030

# System: MDAY-D2 tumor cells
# Assay: not given
# Conditions: viable MDAY-D2 tumor cells; cited from earlier work
row,Structure (SMILES),activity as inhibitors of Golgi oligosaccharide processing
1,CCCC(=O)OC1CN2CCCC(O)C2C1O (stereo not shown) [2-butanoyloxy],retained full activity
2,CCCCCCCC(=O)OC1CN2CCCC(O)C2C1O (stereo not shown) [2-octanoyloxy],retained full activity
3,O=C(OC1CN2CCCC(O)C2C1O)c1ccc([N+](=O)[O-])cc1 (stereo not shown) [2-p-nitrobenzoyloxy],retained full activity
